Molecular target: KRAS G12C and cRAF (Ras-binding domain) interaction (Homo sapiens (Human), UniProt P01116, C118S/C51S/C80L/G12C)
Assay: Inhibition of KRAS G12C and cRAF binding (AlphaScreen)
Conditions: GMPPNP-loaded KRAS G12C, 19-20 hours incubation with compound; read-out: IC50 (Inhibition of KRAS G12C and cRAF Binding)
Summary of the method: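 IC50 values come from 4-parameter nonlinear regression of AlphaScreen signal (680 nm excitation, 570 nm emission). Compound plates sat 19-20 h at room temperature before RBD and donor/acceptor beads were added in Hepes pH 7.4 buffer with 150 mM NaCl, 5 mM MgCl2, 2% DMSO for 60-90 min; biotin-AviTag-GST replaced RBD to flag assay-technology interferers.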

Chain of KRAS G12C and cRAF (Ras-binding domain) interaction (P01116 other isoform, or with tags, fused parts or gaps G12C/C51S/C80L/C118S): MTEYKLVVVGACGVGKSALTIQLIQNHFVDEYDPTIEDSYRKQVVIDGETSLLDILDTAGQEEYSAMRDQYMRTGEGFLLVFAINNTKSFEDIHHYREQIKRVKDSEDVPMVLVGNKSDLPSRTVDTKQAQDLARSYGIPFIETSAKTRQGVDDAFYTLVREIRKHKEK

IC50	Compound
10 to 100 nM	CN(c1nc(OC[C@@]23CCCN2C[C@H](F)C3)nc2c(F)c(-c3cccc4ccc(F)c(Cl)c34)ncc12)[C@@H]1CCN(C(=O)C#CCN2CC(F)C2)C1 [Example 225, 1-((R)-3-((7-(8-chloro-7-fluoronaphthalen-1-yl)-8-fluoro-2-(((2R,7aS)-2-fluorohexahydro-1H-pyrrolizin-7a-yl)methoxy)pyrido[4,3-d]pyrimidin-4-yl)(methyl)amino)pyrrolidin-1-yl)-4-(3-fluoroazetidin-1-yl)but-2-yn-1-one]
100 to 500 nM	C=CC(=O)N1C[C@H](C)[C@@H](N(C)c2nc(OC[C@@]34CCCN3C[C@H](F)C4)nc3c(F)c(-c4cccc5cccc(Cl)c45)ncc23)C1 [Example 189, 1-((3R,4S)-3-((7-(8-chloronaphthalen-1-yl)-8-fluoro-2-(((2R,7aS)-2-fluorotetrahydro-1H-pyrrolizin-7a(5H)-yl)methoxy)pyrido[4,3-d]pyrimidin-4-yl)(methyl)amino)-4-methylpyrrolidin-1-yl)prop-2-en-1-one]
< 10 nM	CN(c1nc(OC[C@@]23CCCN2C[C@H](F)C3)nc2c(F)c(-c3cccc4cccc(Cl)c34)ncc12)[C@@H]1CCN(C(=O)/C=C/c2nc(C3COC3)no2)C1 [Example 159, (E)-1-((R)-3-((7-(8-chloronaphthalen-1-yl)-8-fluoro-2-(((2R,7aS)-2-fluorohexahydro-1H-pyrrolizin-7a-yl)methoxy)pyrido[4,3-d]pyrimidin-4-yl)(methyl)amino)pyrrolidin-1-yl)-3-(3-(oxetan-3-yl)-1,2,4-oxadiazol-5-yl)prop-2-en-1-one]
10 to 100 nM	C=CC(=O)N1C[C@H](N(C)c2nc(OCC34CCCN3CCC4)nc3c(F)c(-c4cccc5cccc(Cl)c45)ncc23)CC1C#N (stereo partly drawn) [Example 118, (4R)-1-acryloyl-4-((7-(8-chloronaphthalen-1-yl)-8-fluoro-2-((hexahydro-1H-pyrrolizin-7a-yl)methoxy)pyrido[4,3-d]pyrimidin-4-yl)(methyl)amino)pyrrolidine-2-carbonitrile]
10 to 100 nM	CC(C)c1noc(/C=C/C(=O)N2CC[C@@H](N(C)c3nc(OC[C@@]45CCCN4C[C@H](F)C5)nc4c3CCN(c3cccc5ccc(F)c(Cl)c35)C4)C2)n1 [Example 99, (E)-1-((R)-3-((7-(8-chloro-7-fluoronaphthalen-1-yl)-2-(((2R,7aS)-2-fluorohexahydro-1H-pyrrolizin-7a-yl)methoxy)-5,6,7,8-tetrahydropyrido[3,4-d]pyrimidin-4-yl)(methyl)amino)pyrrolidin-1-yl)-3-(3-isopropyl-1,2,4-oxadiazol-5-yl)prop-2-en-1-one]
10 to 100 nM	Cc1nccc(/C=C/C(=O)N2CC(CN(C)c3nc(OC[C@@]45CCCN4C[C@H](F)C5)nc4c(F)c(-c5cccc6cccc(Cl)c56)ncc34)C2)n1 [Example 62, (E)-1-(3-(((7-(8-chloronaphthalen-1-yl)-8-fluoro-2-(((2R,7aS)-2-fluorotetrahydro-1H-pyrrolizin-7a(5H)-yl)methoxy)pyrido[4,3-d]pyrimidin-4-yl)(methyl)amino)methyl)azetidin-1-yl)-3-(2-methylpyrimidin-4-yl)prop-2-en-1-one]
10 to 100 nM	Cc1cc(/C=C/C(=O)N2CC(CN(C)c3nc(OC[C@@]45CCCN4C[C@H](F)C5)nc4c(F)c(-c5cccc6ccc(F)c(F)c56)ncc34)C2)nc(C)n1 [Example 274, (E)-1-(3-(((7-(7,8-difluoronaphthalen-1-yl)-8-fluoro-2-(((2R,7aS)-2-fluorotetrahydro-1H-pyrrolizin-7a(5H)-yl)methoxy)pyrido[4,3-d]pyrimidin-4-yl)(methyl)amino)methyl)azetidin-1-yl)-3-(2,6-dimethylpyrimidin-4-yl)prop-2-en-1-one]
10 to 100 nM	C=CC(=O)N1CC[C@@H](N(C)c2nc(OCC34CCCN3CCC4)nc3c(F)c(-c4cccc5ccc(F)c(F)c45)ncc23)C1 [Example 265, (R)-1-(3-((7-(7,8-difluoronaphthalen-1-yl)-8-fluoro-2-((tetrahydro-1H-pyrrolizin-7a(5H)-yl)methoxy)pyrido[4,3-d]pyrimidin-4-yl)(methyl)amino)pyrrolidin-1-yl)prop-2-en-1-one]
100 to 500 nM	Cc1nsc(/C=C/C(=O)N2C[C@H](F)[C@@H](N(C)c3nc(OC[C@@]45CCCN4C[C@H](F)C5)nc4c(F)c(-c5cccc6cccc(Cl)c56)ncc34)C2)n1 [Example 215, (E)-1-((3S,4S)-3-((7-(8-chloronaphthalen-1-yl)-8-fluoro-2-(((2R,7aS)-2-fluorohexahydro-1H-pyrrolizin-7a-yl)methoxy)pyrido[4,3-d]pyrimidin-4-yl)(methyl)amino)-4-fluoropyrrolidin-1-yl)-3-(3-methyl-1,2,4-thiadiazol-5-yl)prop-2-en-1-one]
> 500 nM	C=CS(=O)(=O)C1CN(c2nc(OC[C@@H]3CCCN3C)nc3c2CCN(c2cccc4cccc(Cl)c24)C3)C1 [Example 50, (S)-7-(8-chloronaphthalen-1-yl)-2-((1-methylpyrrolidin-2-yl)methoxy)-4-(3-(vinylsulfonyl)azetidin-1-yl)-5,6,7,8-tetrahydropyrido[3,4-d]pyrimidine]
< 10 nM	CC(C)c1noc(/C=C/C(=O)N2CC[C@@H](N(C)c3nc(OCC45CCCN4CCC5)nc4c(F)c(-c5cccc6ccc(F)c(Cl)c56)ncc34)C2)n1 [Example 85, (R,E)-1-(3-((7-(8-chloro-7-fluoronaphthalen-1-yl)-8-fluoro-2-((hexahydro-1H-pyrrolizin-7a-yl)methoxy)pyrido[4,3-d]pyrimidin-4-yl)(methyl)amino)pyrrolidin-1-yl)-3-(3-isopropyl-1,2,4-oxadiazol-5-yl)prop-2-en-1-one]
< 10 nM	CN(c1nc(OCC23CCCN2CCC3)nc2c(F)c(-c3cccc4cccc(Cl)c34)ncc12)[C@@H]1CCN(C(=O)/C=C/c2nc(C(F)(F)F)no2)C1 [Example 100, (R,E)-1-(3-((7-(8-chloronaphthalen-1-yl)-8-fluoro-2-((tetrahydro-1H-pyrrolizin-7a(5H)-yl)methoxy)pyrido[4,3-d]pyrimidin-4-yl)(methyl)amino)pyrrolidin-1-yl)-3-(3-(trifluoromethyl)-1,2,4-oxadiazol-5-yl)prop-2-en-1-one]

Further lines, the compound ahead of its results:

Compound	IC50
COC(=O)/C=C/C(=O)N1C[C@@H](N(C)c2nc(OC[C@@H]3CCCN3C)nc3c2CCN(c2cccc4cccc(Cl)c24)C3)C[C@@H]1C [Example 4, methyl(E)-4-((2S,4S)-4-((7-(8-chloronaphthalen-1-yl)-2-(((S)-1-methylpyrrolidin-2-yl)methoxy)-5,6,7,8-tetrahydropyrido[3,4-d]pyrimidin-4-yl)(methyl)amino)-2-methylpyrrolidin-1-yl)-4-oxobut-2-enoate]	> 500 nM
C#Cc1c(F)ccc2cccc(-c3ncc4c(N(C)[C@@H]5CCN(C(=O)/C=C/CN6[C@@H]7CC[C@H]6COC7)C5)nc(OC[C@@]56CCCN5C[C@H](F)C6)nc4c3F)c12 [Example 292, (E)-4-((1R,5S)-3-oxa-8-azabicyclo[3.2.1]octan-8-yl)-1-((R)-3-((7-(8-ethynyl-7-fluoronaphthalen-1-yl)-8-fluoro-2-(((2R,7aS)-2-fluorotetrahydro-1H-pyrrolizin-7a(5H)-yl)methoxy)pyrido[4,3-d]pyrimidin-4-yl)(methyl)amino)pyrrolidin-1-yl)but-2-en-1-one]	< 10 nM
CC(C)OC(=O)/C=C/C(=O)N1CC[C@@H](N(C)c2nc(OC[C@@H]3CCCN3C)nc3c2CCN(c2cccc4cccc(Cl)c24)C3)C1 [Example 11, isopropyl(E)-4-((R)-3-((7-(8-chloronaphthalen-1-yl)-2-(((S)-1-methylpyrrolidin-2-yl)methoxy)-5,6,7,8-tetrahydropyrido[3,4-d]pyrimidin-4-yl)(methyl)amino)pyrrolidin-1-yl)-4-oxobut-2-enoate]	10 to 100 nM

Same assay, conditions: additional exemplary compounds; KRAS G12C and cRAF binding; read-out: RAF1 RBD IC50

IC50	Compound
10 to 100 nM	C=CC(=O)CCN(C)c1nc(OC[C@@H]2CCCN2C)nc2c1CCN(c1cccc3cccc(Cl)c13)C2
> 500 nM	C=CC(=O)N1CCC[C@@H](Nc2nc(OC[C@@]34CCCN3C[C@H](F)C4)nc3c(F)c(-c4cccc5cccc(Cl)c45)ncc23)C1
> 500 nM	C=CC(=O)N1C[C@@H](C)C[C@@H](Nc2nc(OC[C@@]34CCCN3C[C@H](F)C4)nc3c(F)c(-c4cccc5cccc(Cl)c45)ncc23)C1
10 to 100 nM	C=CS(=O)(=O)C1CCC(N(C)c2nc(OCC34CCCN3CCC4)nc3c2CCN(c2cccc4cccc(Cl)c24)C3)C1 (stereo not drawn)
100 to 500 nM	CN(C)C/C=C/C(=O)N1CC[C@@H](N(C)c2nc(OCC34CCCN3CCC4)nc3c2CCN(c2cccc4ccc(F)c(Cl)c24)C3)C1
10 to 100 nM	CN(C)C/C=C/S(=O)(=O)C1CCCN(c2nc(OCC34CCCN3CCC4)nc3c(F)c(-c4cccc5cccc(Cl)c45)ncc23)C1 (stereo not drawn)
100 to 500 nM	CN1CCC[C@H]1COc1nc(N(C)[C@@H]2CCN(C(=O)/C=C/CN3CC(F)(F)C3)C2)c2cnc(-c3cccc4cccc(Cl)c34)c(F)c2n1
100 to 500 nM	CN1CCC[C@H]1COc1nc(N(C)[C@@H]2CCN(C#N)C2)c2cnc(-c3cccc4ccc(F)c(Cl)c34)c(F)c2n1
100 to 500 nM	COC/C=C/S(=O)(=O)CCN(C)c1nc(OCC23CCCN2CCC3)nc2c1CCN(c1cccc3cccc(Cl)c13)C2
> 500 nM	C=CC(=O)N1CC[C@H](Nc2nc(OC[C@@]34CCCN3C[C@H](F)C4)nc3c2CCN(c2cccc4cccc(Cl)c24)C3)C1
> 500 nM	C=CC(=O)N1CC[C@H]2[C@@H]1CCN2c1nc(OCC23CCCN2CCC3)nc2c1CCN(c1cccc3cccc(Cl)c13)C2

Compound	IC50
O=C(/C=C/CN1CCOCC1)N1C[C@H]2CC[C@@H](C1)N2c1nc(OC[C@@]23CCCN2C[C@H](F)C3)nc2c(F)c(-c3cccc4cccc(Cl)c34)ncc12	> 500 nM
